The results in this text go back to publication PMC3131451 (Journal of medicinal chemistry, 2010).

The target of experiment [1] is mTOR (FRAP1) (Homo sapiens, UniProt P42345). Description: LanthaScreen Eu kinase binding assay mTOR. The note with it: read-out: Kinase assay IC50 mTOR. For orientation: In TR-FRET formats the signal depends on donor and acceptor labels being close together.
Experiment [2] addresses T1, PDK1 (Homo sapiens, UniProt O15530).
T1 sequence (O15530 1-556): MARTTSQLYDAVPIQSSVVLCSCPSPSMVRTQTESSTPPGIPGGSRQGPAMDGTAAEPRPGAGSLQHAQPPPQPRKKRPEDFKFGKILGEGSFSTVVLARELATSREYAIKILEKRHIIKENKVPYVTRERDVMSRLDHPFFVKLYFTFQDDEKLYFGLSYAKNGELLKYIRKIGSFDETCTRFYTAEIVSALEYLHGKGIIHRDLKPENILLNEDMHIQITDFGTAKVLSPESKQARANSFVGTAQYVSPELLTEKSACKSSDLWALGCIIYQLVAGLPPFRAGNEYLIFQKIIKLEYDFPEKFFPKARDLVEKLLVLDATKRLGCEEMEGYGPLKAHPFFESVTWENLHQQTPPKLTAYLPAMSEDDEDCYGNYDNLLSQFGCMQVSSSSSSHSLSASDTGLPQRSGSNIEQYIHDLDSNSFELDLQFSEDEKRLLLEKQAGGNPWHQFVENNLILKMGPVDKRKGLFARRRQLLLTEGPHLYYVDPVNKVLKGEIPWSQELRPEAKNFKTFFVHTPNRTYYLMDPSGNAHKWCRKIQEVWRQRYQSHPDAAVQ
Description: Z'-LYTE kinase activity assay PDK1. Format: biochemical. As to conditions: read-out: Kinase assay IC50 PDK1, ATP at Km.

Experiment [3] deals with PI3Kα (PIK3CA/PIK3R1) (Homo sapiens, UniProt P42336). Description: LanthaScreen Eu kinase binding assay PI3Kα. As to conditions: for activity in words, biochemical and cell-based assays: both in the biochemical and cell-based assays (Table 1).
PI3Kα (PIK3CA/PIK3R1), sequence (P42336 whole entry): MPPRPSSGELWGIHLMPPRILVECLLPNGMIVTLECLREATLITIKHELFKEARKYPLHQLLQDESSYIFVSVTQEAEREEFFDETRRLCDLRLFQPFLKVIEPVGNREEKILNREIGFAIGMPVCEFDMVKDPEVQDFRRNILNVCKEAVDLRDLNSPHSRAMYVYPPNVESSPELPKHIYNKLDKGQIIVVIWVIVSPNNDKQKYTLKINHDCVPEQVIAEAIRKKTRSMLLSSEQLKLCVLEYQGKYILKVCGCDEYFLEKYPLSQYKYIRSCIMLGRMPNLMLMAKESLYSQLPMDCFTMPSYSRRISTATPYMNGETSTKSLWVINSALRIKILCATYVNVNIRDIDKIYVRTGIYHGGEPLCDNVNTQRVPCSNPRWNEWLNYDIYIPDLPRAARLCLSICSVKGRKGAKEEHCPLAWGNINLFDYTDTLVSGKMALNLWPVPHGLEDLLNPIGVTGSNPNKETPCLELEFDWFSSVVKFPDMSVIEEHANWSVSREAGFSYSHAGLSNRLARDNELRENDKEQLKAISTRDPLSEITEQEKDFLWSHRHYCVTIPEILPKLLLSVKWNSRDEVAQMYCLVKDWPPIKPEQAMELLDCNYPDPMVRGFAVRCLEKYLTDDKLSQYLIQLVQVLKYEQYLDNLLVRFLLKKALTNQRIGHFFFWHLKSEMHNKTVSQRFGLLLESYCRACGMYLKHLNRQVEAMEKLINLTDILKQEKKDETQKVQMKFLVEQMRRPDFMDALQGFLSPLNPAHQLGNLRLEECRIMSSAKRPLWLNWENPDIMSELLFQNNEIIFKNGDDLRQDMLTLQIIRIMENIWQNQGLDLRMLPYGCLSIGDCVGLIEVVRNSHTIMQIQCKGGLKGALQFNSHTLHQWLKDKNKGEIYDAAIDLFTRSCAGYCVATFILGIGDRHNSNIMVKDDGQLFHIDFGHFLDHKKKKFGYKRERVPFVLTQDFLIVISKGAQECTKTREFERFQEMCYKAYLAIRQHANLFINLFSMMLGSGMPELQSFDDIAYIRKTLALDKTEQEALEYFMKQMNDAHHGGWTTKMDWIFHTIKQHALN
PI3Kα (PIK3CA/PIK3R1), sequence (P27986 whole entry partner): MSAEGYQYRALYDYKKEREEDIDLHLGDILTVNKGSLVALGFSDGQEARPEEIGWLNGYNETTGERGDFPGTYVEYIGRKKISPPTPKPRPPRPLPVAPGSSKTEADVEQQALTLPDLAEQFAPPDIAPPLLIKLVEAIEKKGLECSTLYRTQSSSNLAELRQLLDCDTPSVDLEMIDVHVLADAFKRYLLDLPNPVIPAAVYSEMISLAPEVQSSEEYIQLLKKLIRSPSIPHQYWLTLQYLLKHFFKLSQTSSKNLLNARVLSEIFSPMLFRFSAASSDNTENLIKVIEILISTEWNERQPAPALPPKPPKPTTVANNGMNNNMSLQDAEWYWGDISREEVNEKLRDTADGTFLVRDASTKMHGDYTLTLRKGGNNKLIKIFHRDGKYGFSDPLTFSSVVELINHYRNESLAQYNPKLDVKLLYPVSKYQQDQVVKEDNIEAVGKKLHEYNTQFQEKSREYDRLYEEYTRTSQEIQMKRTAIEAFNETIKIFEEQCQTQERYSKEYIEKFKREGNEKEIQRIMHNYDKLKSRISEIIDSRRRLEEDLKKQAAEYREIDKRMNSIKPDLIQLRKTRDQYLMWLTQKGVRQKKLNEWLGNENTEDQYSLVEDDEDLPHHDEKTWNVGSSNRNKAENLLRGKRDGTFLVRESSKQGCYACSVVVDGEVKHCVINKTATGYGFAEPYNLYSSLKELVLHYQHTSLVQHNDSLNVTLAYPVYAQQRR
The subject of experiment [4] is AKT [pT308].
For experiment [5], the system named is Hela cervical carcinoma cells. The experiment can be described thus: Anti-proliferative assay. The note with it: Homo sapiens, 72 h, read-out: Cell-based Assay GI50 Hela.
For experiment [6], the target named is PI-3Kα (Homo sapiens, UniProt P42336). Description: SelectScreen Biochemical Kinase Profiling PI-3Kα. The note with it: in vitro displacement assays against the PI3K isoforms.
PI-3Kα, sequence (P42336 whole entry, canonical isoform): as the sequence (P42336 whole entry) above
PI-3Kα, sequence (P27986 whole entry partner, canonical isoform): as the sequence (P27986 whole entry partner) above
The test system of experiment [7] is PRAS40 [pS183]. The experiment can be described thus: LanthaScreen cellular assay PRAS40 [pSer183]. As to conditions: HEK293E, 1 h, read-out: Cell-based Assay IC50 PRAS40 [pS183].
Experiment [8] has as its system 314 protein kinases. The experiment can be described thus: Selectivity panel against 314 protein kinases. Format: biochemical. The note with it: 10 µM, preliminary selectivity panel.
For experiment [9], the system named is U87 glioblastoma cells. Description: 3D culture assay, U87 spheroids. Format: cell-based, human. As to conditions: 10 µM every day, total of 6 days.
Experiment [10] concerns the target DNA-PK (Homo sapiens, UniProt P78527). The experiment can be described thus: Selectivity panel, kinase inhibition. Format: biochemical.

mTOR (FRAP1), sequence (P42345 1360-2549 limits assumed): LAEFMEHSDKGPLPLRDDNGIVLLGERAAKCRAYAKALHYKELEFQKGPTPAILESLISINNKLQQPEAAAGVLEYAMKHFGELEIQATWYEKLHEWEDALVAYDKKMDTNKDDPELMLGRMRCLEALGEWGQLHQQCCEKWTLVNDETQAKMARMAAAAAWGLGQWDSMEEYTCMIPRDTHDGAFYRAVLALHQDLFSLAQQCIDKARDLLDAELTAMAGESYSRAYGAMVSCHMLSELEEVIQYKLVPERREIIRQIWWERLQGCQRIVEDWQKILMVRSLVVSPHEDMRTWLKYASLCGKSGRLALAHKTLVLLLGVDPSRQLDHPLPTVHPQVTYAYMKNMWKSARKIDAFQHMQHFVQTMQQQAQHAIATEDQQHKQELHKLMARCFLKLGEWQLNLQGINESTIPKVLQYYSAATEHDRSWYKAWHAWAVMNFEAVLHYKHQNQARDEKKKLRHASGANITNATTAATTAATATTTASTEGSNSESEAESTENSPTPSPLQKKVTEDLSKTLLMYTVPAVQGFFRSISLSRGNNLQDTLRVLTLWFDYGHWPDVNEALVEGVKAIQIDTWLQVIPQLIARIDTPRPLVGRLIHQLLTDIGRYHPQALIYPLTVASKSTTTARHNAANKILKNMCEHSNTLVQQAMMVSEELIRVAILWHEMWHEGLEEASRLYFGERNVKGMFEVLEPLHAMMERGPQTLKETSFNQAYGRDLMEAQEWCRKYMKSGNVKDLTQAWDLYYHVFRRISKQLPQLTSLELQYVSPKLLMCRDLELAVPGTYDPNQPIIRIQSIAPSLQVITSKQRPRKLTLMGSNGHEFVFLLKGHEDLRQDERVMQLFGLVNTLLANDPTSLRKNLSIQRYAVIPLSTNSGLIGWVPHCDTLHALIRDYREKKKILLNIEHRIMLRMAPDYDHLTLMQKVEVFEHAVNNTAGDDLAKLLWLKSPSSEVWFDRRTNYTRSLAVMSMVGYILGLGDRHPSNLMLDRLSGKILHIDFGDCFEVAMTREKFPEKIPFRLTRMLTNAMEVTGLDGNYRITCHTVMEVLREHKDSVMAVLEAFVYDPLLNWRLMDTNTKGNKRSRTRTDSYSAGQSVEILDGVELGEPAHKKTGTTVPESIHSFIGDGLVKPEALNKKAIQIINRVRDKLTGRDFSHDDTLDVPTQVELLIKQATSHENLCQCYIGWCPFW

The term IC50 denotes the point on the concentration scale where inhibition reaches its midpoint. For the compound “3-(pyridin-2-ylethynyl)-1H-pyrazolo[3,4-b]pyridine [Compound 21]”, the IC50 in experiment [1] is 5 µM; in experiment [2] it was more than 50 µM; in experiment [3] (read-out: Kinase assay IC50 PI3Kα, LanthaScreen Eu kinase binding assay), 9 µM.

Broadly, the GI50 is the concentration that inhibits growth by half. Regarding `Nc1ccc(C#Cc2n[nH]c3ccccc23)cc1` [Compound 6, 4-((1H-indazol-3-yl)ethynyl)aniline], in experiment [4], the IC50 turned out to be 17.1 µM. For the same compound, the GI50 in [5] turned out to be 3.6 µM. In experiment [6], the “selectivity for α isoform over the β and γ isoforms” value is “about 100 fold”.

In the case of `C(#Cc1n[nH]c2ccccc12)c1ccccc1` [Compound 7, 3-(phenylethynyl)-1H-indazole], the IC50 in experiment [4] was more than 100 µM. The “PI3Kα activity in words” value in experiment [3] is “poor activity”.

With `Fc1cc(F)cc(C#Cc2n[nH]c3ccccc23)c1` [Compound 8, 3-((3,5-difluorophenyl)ethynyl)-1H-indazole], the IC50 in [4] is more than 100 µM; in experiment [7], more than 200 µM. Besides, in experiment [3], the “PI3Kα activity in words” value was “poor activity”.

In general, inhibition refers to the share of the control response that was lost under treatment. High values mean a response far below the control, low ones a response near the control. As to `C(#Cc1n[nH]c2ccccc12)c1ccncc1` [Compound 10, 3-(pyridin-4-ylethynyl)-1H-indazole], the “share of 314 protein kinases showing ≥ 50% inhibition” value in [8] is reported as “less than 10%”. For the same compound, the “U87 spheroid cell growth/proliferation (spheroid volumes)” value in experiment [9] is on record as “strongly suppressed cell growth/proliferation”. The same compound registered an inhibition at 10 µM in [10] of more than 50%.

For `CN(C)CC#Cc1n[nH]c2ccccc12` [Compound 11, 3-(1H-indazol-3-yl)-N,N-dimethylprop-2-yn-1-amine], the IC50 in experiment [4] is more than 100 µM. Also, the “activity in words, biochemical and cell-based assays” value in [3] was “inactive”.

`C(#Cc1n[nH]c2ccccc12)c1ccccn1` [Compound 12, 3-(pyridin-2-ylethynyl)-1H-indazole] yielded an IC50 in [4] of more than 100 µM.

`C(#CC1CCCC1)c1n[nH]c2ccccc12` [Compound 14, 3-(cyclopentylethynyl)-1H-indazol]: in [4], the IC50 was more than 50 µM. In addition, the “activity in words, biochemical and cell-based assays” value in experiment [3] is “inactive”.

In [4], `C(#CC1CC1)c1n[nH]c2ccccc12` [Compound 15, 3-(cyclopropylethynyl)-1H-indazole] returned an IC50 of more than 50 µM. In addition, the “activity in words, biochemical and cell-based assays” value in [3] was “inactive”.

Regarding `Nc1ccccc1C#Cc1n[nH]c2ccccc12` [Compound 16, 2-((1H-indazol-3-yl)ethynyl)aniline], in [4], the IC50 was more than 100 µM.

For the compound `FC(F)(F)c1cc(C#Cc2n[nH]c3ccccc23)cc(C(F)(F)F)c1` [Compound 17, 3-((3,5-bis(trifluoromethyl)phenyl)ethynyl)-1H-indazole], the IC50 in experiment [4] was more than 100 µM. Also, the “PI3Kα activity in words” value in experiment [3] was “poor activity”.

`C(#Cc1n[nH]c2ccccc12)c1ccsc1` [Compound 18, 3-(thiophen-3-ylethynyl)-1H-indazole]: in [4], the IC50 is more than 100 µM. Also, in [3], the “PI3Kα activity in words” value is “poor activity”.

Turning to `N#Cc1ccc(C#Cc2n[nH]c3ccccc23)cc1` [Compound 19, 4-((1H-indazol-3-yl)ethynyl)benzonitrile], the IC50 in experiment [4] was more than 50 µM. Also, the “PI3Kα activity in words” value in experiment [3] was “poor activity”.

Turning to `C(#Cc1n[nH]c2ncccc12)c1ccncc1` [Compound 20, 3-(pyridin-4-ylethynyl)-1H-pyrazolo[3,4-b]pyridine], the “loss of PI3Kα activity versus compound 10” value in [3] (pyrazolopyridine analog compared with indazole 10) is on record as 10 fold.
